Measurements reported in patent US20100331363A1, “TREATMENT OF MITOCHONDRIAL DISORDERS USING A FARNESYL TRANSFERASE INHIBITOR” (Link Medicine Corporation, priority 2008, published 2010).
Entries after “also recorded” stand apart in the source; their conditions may differ.

Experiments:
[1] = tested on: autophagy-related gene transcripts; assay: mRNA of autophagy-related genes (Atg1, p62) in SH-SY5Y cells; type: cell-based, human; conditions: 100 nM
Description: (§1) Quantitative real-time PCR: Gene expression profiles were done by qPCR on series of known autophagy genes. RNA was extracted with Tri-reagent (Sigma), and cDNAs generated using iScript (Biorad). qPCR analysis was carried out in a 96 well plate using an iCycler (BioRad, Hercules, Calif.), and iQ SYBR Green Supermix (Biorad) according to the manufacturer's specifications.
Rapamycin is a well-characterized autophagy stimulator that acts through inhibition of mTOR, a kinase involved in nutrient signaling and regulation of cell growth and survival.

LC3 mRNA = LC3 mRNA (qPCR) in SH-SY5Y cells; type: cell-based, human
Description: Cell culture and immunocytochemistry: SH-SY5Y cells were grown in DMEM medium supplemented with 10% FBS and 1% pen/strep at 37° C. and 5% CO2. Cells were differentiated with 10 μM retinoic acid for 48 hr, then treated with the either rapamycin (100 nM or 1 μM) or with 100 nM of either LNK-754-TS or Tipifarnib for 48-72 hr. Cells were then fixed with 4% paraformaldehyde and stained for LC3 (Novus biological, NB100-2331, dilution 1:800) followed by secondary Alexa-564 anti-Rabbit (A-11011).
as §1
Such increases in LC3 mRNA levels are associated in the literature with stimulation of macroautophagy. This supports the hypothesis that at doses as low as 1 nM in this in vitro system there is stimulation of autophagy in these cells.
Autophagy was measured in a neuroblastoma cell culture system by three distinct approaches: quantitation of autophagy-related mRNA's, immunofluorescence microscopy of autophagosomes, and biochemical detection of the microtubule-associated protein 1 light chain 3 (LC3) a key protein that is required for autophagosome formation. Differentiated human neuroblastoma cells (SH-SY5Y) were treated for 72 hr with LNK-754-TS (0.01-100 nM), Zarnestra® (also referred to herein as tipifarnib) (100 nM) or rapamycin (1 μM).

human α-synuclein = assay: Masliah D-line α-synuclein transgenic mouse, α-synuclein immunoreactivity and ELISA; type: in vivo
Description: Animals and treatments: Male and female human WT alpha-synuclein over-expressing transgenic mice^32 at 6 months of age were given vehicle (10% beta-cyclodextrin) or LNK-754-TS (0.09, 0.9 and 9 mg/kg) per oral gavage twice daily for 3 months or animals at 7 months of age were given vehicle (2.5% beta-cyclodextrin) or LNK-754-TS (2 mg/kg) once every three days for 3 months. Male and female TAU transgenic mice expressing TAU441 bearing the missense mutations V337M^50 and R406W under the control of the murine Thy-1 promoter with a CB6xC57BL/6 background were 5 months old at the time when the oral treatment for three months with LNK-754-TS (0.9 and 0.09 mg/kg) as well as vehicle (2.5% beta-cyclodextrin) was started. Female human APP/PS1 (APP (London V7171)/PS1(A246E)) over-expressing transgenic mice were treated with LNK-754-TS (0.9 mg/kg) or vehicle (2.5% beta-cyclodextrin) for 2 months or 12 days.
Immunohistochemistry and quantification of stained cells: For evaluation of α-synuclein immunoreactivity (IR), 5 sagittal cryo-cut sections (10 μm slice thickness) from five different layers were used for counting of IR cells in the cortex and hippocampus. Brain sections were stained with a monoclonal human α-synuclein specific antibody (Alexis®; Cat#804-258-L001; dilution 1:5), followed by a secondary Ab Cy 2-Goat Anti-Rat (Jackson ImmunoResearch®; dilution 1:200). IR positive cells were quantified using specialized image analysis software (Image Pro Plus, version 4.5.1.29). For Tau transgenic animals, 5 μm thick coronal paraffin sections were stained with the monoclonal mouse anti-human TAU-antibodies (AT180—1:100; HT7—1:500) and visualized using an anti-mouse Cy3 secondary antibody (1:500, Jackson Laboratories®). Images were evaluated with ImageProPlus (version 6.2) image analysis software. For APP/PS1 transgenic animals sagittal hemisections (40 μm) were collected and processed for Aβ immunohistochemistry using an 6E10 antibody, Thioflavin-S staining. Primary antibodies were detected by the ABC method.
ELISA quantification of α-Synuclein in the α-Synuclein transgenic animals: Brain homogenate was centrifuged and the supernatant saved as fraction F1. The pellet was washed then resuspended and saved as fraction F2. Plates (Nunc, 464718) were coated with SYN-1 (1:1000, BD Transduction Labs, 610787). Monomeric recombinant α-synuclein was included as an internal standard. Biotinylated antibody FL-140 (1:300, Santa Cruz Biotechnology, sc-10717-B) and ExtrAvidin-Alkaline phosphatase (3:5000, Sigma, E2636) was added followed by pNPP substrate solution (Sigma, N1891). Raw absorbance (405 nm) was then normalized to the total protein concentration of each sample. In the APP/PS1 transgenic animal, brains were homogenized and the supernatant, Faction 1, was separated from the pellet. The pellets were further processed with addition of NP40 and Triton X-100. The supernatant was separated from the pellet as the insoluble membrane, Fraction 2, and was dissolved in 8M Guanidine. To quantify the amount of human Aβ-40 and Aβ-42, ELISA kits were used (The Genetics Company, Zurich, Switzerland).
In FIG. 2 is shown efficacy data for LNK-754-TS in the Masliah D-line transgenic α-synuclein mouse (an accepted model of synucleinopathies). Two trials are shown, the first (FIG. 2A) at higher doses of LNK-754-TS: 45 mg/kg and 9 mg/kg. […] The second trial (FIG. 2B) explores the low dose range for efficacy in the α-synuclein models. Here, doses start as low as 0.9 mg/kg, and extend through 9 mg/kg, all below the efficacious dose range in the mouse oncology model.
After dosing with LNK-754-TS for three months (twice daily at 0.09 mg/kg or 0.9 mg/kg), α-synuclein accumulation in the brain was analyzed by immunohistochemical (human specific α-synuclein immunoreactivity) and biochemical (α-synuclein ELISA) means. […]

INS1 cells = assay: Palmitate-induced cell death of INS1 cells, propidium iodide flow cytometry; type: cell-based; conditions: low dose; palmitate 18 hours, compound last 12 hours
Description: LNK-754 was tested using a cell death assay to determine whether it had any effect on palmitate-induced cell death. For Example, one example of such an assay is as follows: INS1 cells were incubated in control medium or in medium containing palmitate for 18 hours and either rapamycin or LNK-754 at 0.25 nM, 0.5 nM, 1 nM, 10 nM, and 100 nM were added for the last 12 hours. At the end of the incubation, the cells were washed with PBS and stained with 1 μg/ml propidium iodide (e.g., Molecular Probes, P3566). FACS data analysis was performed and cell debris was excluded. […] At low dose, LNK-754 behaves similar to rapamycin.

[2] = 9 mg/kg PO BID 3 months, first trial (FIG. 2A)
[3] = 45 mg/kg PO BID 3 months (FIG. 2A)
[4] = 0.09 or 0.9 mg/kg twice daily, three months
[5] = α-synuclein transgenic mice vs vehicle

Row | SMILES | transcript encoding p62 ([1]; SH-SY5Y (FIG. 8e)) | mRNA levels of a set of autophagy-related genes (incl. Atg1) ([1]; SH-SY5Y (FIG. 8d)) | LC3 transcript (LC3 mRNA; 0.01-100 nM, 72 hr, differentiated SH-SY5Y (FIG. 8a)) | levels of mRNA of LC3 (LC3 mRNA; between 1 and 100 nM, SH-SY5Y, 72 hours (FIG. 4)) | α-synuclein accumulation in brain (immunoreactivity and ELISA) (human α-synuclein; 0.09 mg/kg or 0.9 mg/kg twice daily, three months, cortex and hippocampus) | cortical α-synuclein immunoreactivity (human α-synuclein; 2 mg/kg once every 72 hours, three months, vs baseline and vehicle) | number of α-synuclein positive neurons (human α-synuclein; [2]) | number of α-synuclein IR cells in hippocampus (human α-synuclein; 9 mg/kg PO BID 3 months, second lower dose trial (FIG. 2B)) | number of α-synuclein positive neurons (human α-synuclein; [3]) | astrocytosis (GFAP staining) (human α-synuclein; [4]) | drug-dependent toxicity (human α-synuclein; [4]) | neuronal loss (NeuN staining and brain volume) (human α-synuclein; [4]) | synaptic damage (synaptophysin staining) (human α-synuclein; [4]) | reduction of α-synuclein immunoreactivity, hippocampal slices (human α-synuclein; three-month dosing trial (FIG. 9c)) | number of α-synuclein positive neurons (human α-synuclein; 0.9 mg/kg, second trial (FIG. 2B)) | levels of α-synuclein in the hippocampus (human α-synuclein; [5]) | α-synuclein inclusions (human α-synuclein; [5]) | palmitate-induced cell death (INS1 cells)
1 | C#Cc1cccc(-c2cc(=O)n(C)c3ccc([C@](O)(c4ccc(Cl)cc4)c4cncn4C)cc23)c1 [LNK-754-TS, (R)-6-[(4-chlorophenyl)-hydroxyl-(1-methyl-1-H-imidazol-5-yl)-methyl]-4-(3-ethynylphenyl)-1-methyl-2-(1H)-quinonlinone (2S, 3S)-dihydroxybutanedioate] | induced upregulation; also recorded: increased | unaffected | upregulated; also recorded: increased | significant increases | clearly reduced; also recorded: halts deposition | significantly lower than at the outset of treatment; also recorded: significantly reduces | significant reduction | significance level was not reached | not significantly effective | GFAP staining was unchanged | None of the treated animals showed any evidence | no evidence of neuronal loss | synaptophysin staining was unchanged | ca. 50% | – | – | – | –
2 | C#Cc1cccc(-c2cc(=O)n(C)c3ccc([C@](O)(c4ccc(Cl)cc4)c4cncn4C)cc23)c1 [LNK-754, (R)-6-[(4-chlorophenyl)-hydroxyl-(1-methyl-1-H-imidazol-5-yl)-methyl]-4-(3-ethynylphenyl)-1-methyl-2-(1H)-quinonlinone] | – | – | – | – | – | – | found to significantly lower | – | did not significantly lower; also recorded: not found to significantly lower | – | – | – | – | – | significantly lowered | decrease levels of α-synuclein | fewer α-synuclein inclusions | protects INS1 cells from palmitate toxicity
